Consider 10 molecules from patent US8765748B2, “Indazolyl, benzimidazolyl, benzotriazolyl substituted indolinone derivatives as kinase inhibitors useful in the treatment of cancer” (University Health Network, priority 2007, dated 2014).

One assay has as its target T1, human PLK4 (Homo sapiens, UniProt O00444).
T1 construct: amino terminal GST fusion of residues 1-391 of human PLK4; made in house; host or cells: E. coli
T1 sequence (O00444 1-391): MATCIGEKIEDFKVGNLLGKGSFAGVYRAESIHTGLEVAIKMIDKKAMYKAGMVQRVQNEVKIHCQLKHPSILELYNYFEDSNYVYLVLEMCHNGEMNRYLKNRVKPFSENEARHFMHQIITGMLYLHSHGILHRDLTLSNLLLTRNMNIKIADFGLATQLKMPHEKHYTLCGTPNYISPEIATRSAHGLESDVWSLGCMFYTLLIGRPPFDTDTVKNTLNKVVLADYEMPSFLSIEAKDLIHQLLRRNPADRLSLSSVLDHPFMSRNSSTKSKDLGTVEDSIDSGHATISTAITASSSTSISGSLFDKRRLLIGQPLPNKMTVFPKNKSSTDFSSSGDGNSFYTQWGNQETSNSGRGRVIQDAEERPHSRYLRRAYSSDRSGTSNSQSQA
The assay can be described thus: PLK4 Inhibition Assay (indirect ELISA). In kind it is biochemical. Conditions: 15 μM ATP, 4 nM GST-PLK4; read-out: PLK4 IC50 Ranges. In short, it runs like this: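 IC50 values, from 4-point logistic fitting, reflect remaining activity measured by indirect ELISA. Enzyme was GST-PLK4 treated with lambda phosphatase and given a 15-minute pre-incubation with compound before ATP start.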

For the next assay, the target named is T2, PLK1 (Homo sapiens, UniProt P53350).
T2 construct: purchased Invitrogen PV3501
T2 sequence (P53350 whole entry): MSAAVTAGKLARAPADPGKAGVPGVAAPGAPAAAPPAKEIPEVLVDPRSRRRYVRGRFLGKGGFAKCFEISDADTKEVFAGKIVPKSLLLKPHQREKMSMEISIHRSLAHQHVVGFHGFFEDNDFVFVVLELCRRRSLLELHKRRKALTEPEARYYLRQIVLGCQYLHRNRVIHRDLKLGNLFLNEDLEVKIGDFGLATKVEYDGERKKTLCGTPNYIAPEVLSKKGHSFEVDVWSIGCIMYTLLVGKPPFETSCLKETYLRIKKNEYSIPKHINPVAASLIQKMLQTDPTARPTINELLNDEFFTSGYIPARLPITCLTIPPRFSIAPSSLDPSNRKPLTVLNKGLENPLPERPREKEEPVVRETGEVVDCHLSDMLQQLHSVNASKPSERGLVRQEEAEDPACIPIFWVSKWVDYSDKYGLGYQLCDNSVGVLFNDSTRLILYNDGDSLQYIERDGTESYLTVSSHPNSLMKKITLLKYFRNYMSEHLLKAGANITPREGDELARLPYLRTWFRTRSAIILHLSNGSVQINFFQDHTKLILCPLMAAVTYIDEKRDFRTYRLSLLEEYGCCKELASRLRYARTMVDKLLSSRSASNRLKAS
Put plainly: PLK1 Inhibition Assay (Z-Lyte). The format is biochemical. Particulars: for IC50: 25 μM ATP, 8 nM PLK1, read-out: PLK1 IC50 Ranges; for inhibition at 10 µM: 10 μM compound, read-out: PLK1 relative inhibition percentage at a dose of 10 μM. The procedure: PLK1 inhibition was determined using the Z-Lyte assay kit from Invitrogen (cat #PV3802). […] The % inhibition values were determined according to the manufacturer's directions and IC50 values were obtained using a non-linear 4 point logistic curve fit (XLfit4, IDBS)

Assay [1] has as its system MCF-7 luminal breast cancer cell line. The assay can be described thus: Cell growth inhibition, Sulforhodamine B assay (SRB). In kind it is cell-based. Conditions: Homo sapiens, MCF7, 120 h; 5 days culture, SRB; read-out: Cell Line GI50 Range, MCF-7. The procedure: (§1) Breast cancer cells (MCF-7, MDA-MB-468, HCC1954), colon cancer cells (SW620) and lung cancer cells (A549), together with human mammary epithelial primary cells (HMEC), were seeded (1000 to 4000 per 80 μl per well depending on the cell growth rate) into 96 well plates, 24 hours before compound overlay. Compounds were prepared as 10 mM stock solutions in 100% DMSO which were diluted with DMEM (Dulbecco's Modified Eagle's Medium) cell growth Medium (Invitrogen, Burlington, ON, Canada) containing 10% FBS (Fetal Bovine Serum) to concentrations ranging from 50 nM to 250 μM. Aliquots (20 μl) from each concentration were overlaid to 80 μl of the pre-seeded cells in the 96 well plates to make final concentrations of 10 nM to 50 μM. The cells were cultured for 5 days before the Sulforhodamine B assay (SRB) was performed to determine the compound's cell growth inhibition activity.
(§2) Sulforhodamine B (purchased from Sigma, Oakville, ON, Canada) is a water-soluble dye that binds to the basic amino acids of the cellular proteins. Thus, colorimetric measurement of the bound dye provides an estimate of the total protein mass that is related to the cell number. the cells are fixed in situ by gently aspirating off the culture media and adding 50 μl ice cold 10% Tri-chloroacetic Acid (TCA) per well and incubate at 4° C. for 30-60 min, The plates are washed with water five times and allowed to air dry for 5 min. Addition of 50 μl 0.4% (w/v) SRB solution in 1% (v/v) acetic acid to each well and incubatation for 30 min at RT completes the staining reaction. Following staining, plates are washed four times with 1% acetic acid to remove unbound dye and then allowed to air dry for 5 min. The stain is solubilized with 100 μl of 10 mM Tris pH10.5 per well. Absorbance is read at 570 nm.
(§3) The percentage (%) of relative growth inhibition was calculated by comparing to DMSO treated only cells (100%). GI50's were determined for compounds with cytotoxic activity. The GI50 was calculated using GraphPad PRISM software (GraphPad Software, Inc., San Diego, Calif., USA).
(In general: In SRB staining, fixed cells bind dye roughly in proportion to their protein.)

Assay [2] has as its system MDA-MB-468 basal breast cancer cell line. The assay is described as above. In kind it is cell-based. Conditions: Homo sapiens, MDA-MB-468, 120 h; 5 days culture, SRB; read-out: Cell Line GI50 Range, MDA-MB-468. The procedure:
as §1, §2, §3

A further assay deals with T3, Aurora A (Homo sapiens, UniProt O14965).
T3 construct: purchased Invitrogen PV3612
T3 sequence (O14965 1-403): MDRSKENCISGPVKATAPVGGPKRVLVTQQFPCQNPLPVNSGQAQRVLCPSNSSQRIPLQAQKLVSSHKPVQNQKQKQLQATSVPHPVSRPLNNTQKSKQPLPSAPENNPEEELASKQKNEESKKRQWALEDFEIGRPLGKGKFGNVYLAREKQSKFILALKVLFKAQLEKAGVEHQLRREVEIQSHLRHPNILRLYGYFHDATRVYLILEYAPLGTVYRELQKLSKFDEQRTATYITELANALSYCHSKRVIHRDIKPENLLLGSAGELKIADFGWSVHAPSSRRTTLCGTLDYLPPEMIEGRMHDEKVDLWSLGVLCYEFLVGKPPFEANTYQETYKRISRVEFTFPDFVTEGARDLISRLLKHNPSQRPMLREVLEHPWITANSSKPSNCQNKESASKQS
The assay can be described thus: Aurora A Inhibition Assay (Z-Lyte). The format is biochemical. Particulars: for inhibition at 10 µM: 10 μM compound, read-out: Aurora A relative inhibition percentage at a dose of 10 μM; for IC50: 20 μM ATP, 12 nM Aurora A, read-out: Aurora A IC50 Ranges. The procedure: Aurora A inhibition was determined using the Z-Lyte assay kit from Invitrogen. The assay was performed using the recommended manufacturer's instructions with 20 μM ATP and 12 nM Aurora A (Invitrogen cat #PV3612). The % inhibition values were determined according to the manufacturer's directions and IC50 values were obtained using a non-linear 4 point logistic curve fit (XLfit4, IDBS)

The target of a further assay is T4, Aurora B (Homo sapiens, UniProt Q96GD4).
T4 construct: purchased Invitrogen PV3970
T4 sequence (Q96GD4 whole entry): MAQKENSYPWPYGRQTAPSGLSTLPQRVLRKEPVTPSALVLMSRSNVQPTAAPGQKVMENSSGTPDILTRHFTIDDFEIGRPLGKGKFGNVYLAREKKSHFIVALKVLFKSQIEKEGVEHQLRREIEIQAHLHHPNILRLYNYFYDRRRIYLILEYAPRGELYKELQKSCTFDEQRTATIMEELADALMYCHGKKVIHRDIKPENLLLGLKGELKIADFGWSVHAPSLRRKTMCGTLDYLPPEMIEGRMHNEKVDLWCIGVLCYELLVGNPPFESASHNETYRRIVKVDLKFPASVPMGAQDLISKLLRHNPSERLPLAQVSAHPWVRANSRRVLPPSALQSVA
The assay can be described thus: Aurora B Inhibition Assay (Z-Lyte). The format is biochemical. Particulars: for IC50: 128 μM ATP, 28 nM Aurora B, read-out: Aurora B IC50 Ranges. As to the method: Aurora B inhibition was determined using the Z-Lyte assay kit from Invitrogen. The assay was performed using the recommended manufacturer's instructions with 128 μM ATP and 28 nM Aurora B (Invitrogen cat #PV3970). The % inhibition values were determined according to the manufacturer's directions and IC50 values were obtained using a non-linear 4 point logistic curve fit (XLfit4, IDBS)

Another assay deals with A549 lung cancer cells. The assay can be described thus: Cell growth inhibition, Sulforhodamine B assay (SRB). In kind it is cell-based. Conditions: Homo sapiens, A549, 120 h, 5 days culture, read-out: Cell Line GI50 Range, A-549. The procedure: as §1, §2, §3
The subject of assay [3] is HCC1954 basal breast cancer cell line. The assay is described as above. In kind it is cell-based. Conditions: Homo sapiens, HCC1954, 120 h, 5 days culture, read-out: Cell Line GI50 Range, HCC-1954. As to the method:
as §1, §2, §3

The subject of the next assay is SW620 colon cancer cells. The assay is described as above. Particulars: Homo sapiens, SW-620, 120 h, 5 days culture, read-out: Cell Line GI50 Range, SW-620. The format is cell-based. As to the method: as §1, §2, §3
For another assay, the target named is T5, PLK2 (Homo sapiens, UniProt Q9NYY3).
T5 construct: purchased Invitrogen PV4204
T5 sequence (Q9NYY3 whole entry): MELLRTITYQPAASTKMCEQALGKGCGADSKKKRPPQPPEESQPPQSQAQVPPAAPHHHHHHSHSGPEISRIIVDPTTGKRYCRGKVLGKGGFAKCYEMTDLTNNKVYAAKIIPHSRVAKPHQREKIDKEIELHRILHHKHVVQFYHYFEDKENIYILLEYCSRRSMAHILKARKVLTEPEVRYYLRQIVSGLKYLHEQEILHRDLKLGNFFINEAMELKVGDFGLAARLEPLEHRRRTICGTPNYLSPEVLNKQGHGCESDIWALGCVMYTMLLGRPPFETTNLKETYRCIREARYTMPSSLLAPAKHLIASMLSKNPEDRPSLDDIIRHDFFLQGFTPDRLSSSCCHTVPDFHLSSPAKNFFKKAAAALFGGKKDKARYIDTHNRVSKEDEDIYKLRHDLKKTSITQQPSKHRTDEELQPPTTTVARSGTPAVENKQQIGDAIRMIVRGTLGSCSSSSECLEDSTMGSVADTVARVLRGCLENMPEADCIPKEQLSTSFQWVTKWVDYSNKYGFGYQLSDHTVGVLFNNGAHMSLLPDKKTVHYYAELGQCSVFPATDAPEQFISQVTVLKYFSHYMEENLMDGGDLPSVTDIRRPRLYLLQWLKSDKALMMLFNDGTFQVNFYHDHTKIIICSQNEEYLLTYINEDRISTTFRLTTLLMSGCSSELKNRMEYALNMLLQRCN
Put plainly: PLK2 Inhibition Assay (Z-Lyte). The format is biochemical. Conditions: for inhibition at 10 µM: 10 μM compound, read-out: PLK2 relative inhibition percentage at a dose of 10 μM. The procedure: PLK2 inhibition was determined using the Z-Lyte assay kit from Invitrogen (cat #PV3802). The assay was performed using the recommended manufacturer's instructions with 60 μM ATP and 133 nM PLK2 (Invitrogen cat #PV4204). The % inhibition values were determined according to the manufacturer's directions and IC50 values were obtained using a non-linear 4 point logistic curve fit (XLfit4, IDBS)

For orientation: IC50 means the concentration that gives 50% inhibition. Broadly, the GI50 is the concentration that inhibits growth by half. What is called inhibition is the relative decrease from the control value, in per cent.

Turning to `CNC(=O)c1ccc2c(c1)NC(=O)C2=Cc1ccc2cn[nH]c2c1` (mixture of isomers) [Example A10, (E and Z)-(3-((1H-indazol-6-yl)methylene)-N-methyl-2-oxoindoline-6-carboxamide], the IC50 on human PLK4 and at PLK1 was below 5 µM each time. Moreover, the GI50 in [1] and in [2] was 20 to 50 µM in each case.

As to `CN1CCN(c2ccc(-c3n[nH]c4cc(C=C5C(=O)Nc6ccccc65)ccc34)cn2)CC1` (mixture of isomers) [Example A96, (E and Z)-3-((3-(6-(4-methylpiperazin-1-yl)pyridin-3-yl)-1H-indazol-6-yl)methylene)indolin-2-one], the IC50 at human PLK4 and on Aurora B was below 5 µM in each case. For the same molecule, the inhibition at 10 µM on PLK1 is below 50%; on Aurora A, above 50%. Moreover, the GI50 (in the assay on A549 lung cancer cells; in assay [3]; in assay [1]; in assay [2]; in the assay on SW620 colon cancer cells) was below 5 µM each time.

With `CN1CCN(c2ccc(-c3n[nH]c4cc(C=C5C(=O)Nc6ccc(Br)cc65)ccc34)cn2)CC1` (mixture of isomers) [Example A150, (E and Z)-5-bromo-3-((3-(6-(4-methylpiperazin-1-yl)pyridin-3-yl)-1H-indazol-6-yl)methylene)indolin-2-one], at human PLK4, the IC50 was below 5 µM. In addition, the GI50 (in the assay on A549 lung cancer cells; in assay [3]; in assay [1]; in assay [2]; in the assay on SW620 colon cancer cells) was below 5 µM in each case.

Take `O=C1Nc2cc(Cl)ccc2/C1=C\c1ccc2[nH]nnc2c1` [Example A4, (E)-3-((1H-benzo[d][1,2,3]triazol-5-yl)methylene)-6-chloroindolin-2-one]: the IC50 on human PLK4 and on PLK1 was 5 to 50 µM in each case. Also, the GI50 in assay [1] and in assay [2] was 5 to 20 µM each time.

In the case of `O=C1Nc2ccccc2/C1=C\c1ccc2[nH]cnc2c1` [Example A19, (E)-3-((1H-benzo[d]imidazol-5-yl)methylene)indolin-2-one], the IC50 at human PLK4 and on PLK1 was 5 to 50 µM throughout. The GI50 was 5 to 20 µM in assay [1] and below 5 µM in assay [2].

As to `O=C1Nc2ccc(Br)cc2/C1=C\c1ccc2[nH]ncc2c1` [Example A31, (E)-3-((1H-indazol-5-yl)methylene)-5-bromoindolin-2-one], the IC50 on human PLK4 was below 5 µM; on PLK1, above 50 µM; at PLK2 (60 μM ATP, 133 nM PLK2, read-out: PLK2 IC50 Ranges), 5 to 50 µM. Moreover, the inhibition at 10 µM at Aurora A was below 50%; on Aurora B (10 μM compound, read-out: Aurora B relative inhibition percentage at a dose of 10 μM), above 50%. Moreover, the GI50 in assay [1] and in assay [2] was below 5 µM in each case.

`O=C1Nc2ccc(F)cc2/C1=C/c1ccc2cn[nH]c2c1` [Example A32, (Z)-3-((1H-indazol-6-yl)methylene)-5-fluoroindolin-2-one]: the figures for the IC50 at human PLK4, on PLK1 and at Aurora B were below 5 µM, 5 to 50 µM and below 5 µM, respectively. Besides, the inhibition at 10 µM was below 50% at PLK2 and above 50% on Aurora A. Moreover, the GI50 in [1] and in [2] was 5 to 20 µM in each case.

In the case of `COc1ccc2c(c1)/C(=C\c1ccc3c(/C=C/c4ccncc4Cl)n[nH]c3c1)C(=O)N2` [Example A119, (E)-3-((3-((E)-2-(3-chloropyridin-4-yl)vinyl)-1H-indazol-6-yl)methyl-ene)-5-methoxyindolin-2-one], the IC50 at human PLK4, at Aurora A and on Aurora B was below 5 µM throughout. Besides, the inhibition at 10 µM at PLK1 and at PLK2 was below 50% throughout.

Take `CC(=O)Nc1cccc2c1NC(=O)/C2=C/c1ccc2c(/C=C/c3ccncc3)n[nH]c2c1` [Example A120, N-((E)-2-oxo-3-((3-((E)-2-(pyridin-4-yl)vinyl)-1H-indazol-6-yl)-methylene)indolin-7-yl)acetamide]: the IC50 at human PLK4, at Aurora A and at Aurora B was below 5 µM throughout. Further, the inhibition at 10 µM on PLK1 and at PLK2 was below 50% in each case.

Consider `O=C1Nc2ccccc2/C1=C\c1ccc2c(C#Cc3cccnc3)n[nH]c2c1` [Example A147, (E)-3-((3-(pyridin-3-ylethynyl)-1H-indazol-6-yl)methylene)indolin-2-one], for which, at human PLK4, the IC50 is below 5 µM. In addition, the concentration for 50% growth inhibition (GI50) with A549 lung cancer cells was above 50 µM; in [3], above 50 µM; in [1], 20 to 50 µM; in assay [2], 5 to 20 µM; with SW620 colon cancer cells, 20 to 50 µM.
